According to patent US8410161B2, “Thioxanthone ring system derivatives” (National Defense Medical Center, priority 2010, dated 2013):

What was measured:
M14 = test: NCI in vitro DTP human cell line screen, M14; format: cell-based; conditions: Melanoma, 1.00E−5 Molar
Description: (§1) Then, a cell toxicity assay of the cancer lines made by National Cancer Institute will be discussed as follows. The cell toxicity assay is performed by choosing ten compounds (existing certification numbers) from the 59 compounds disclosed in the present invention first.

MDA-MB-435 = test: NCI in vitro DTP human cell line screen, MDA-MB-435; format: cell-based; conditions: Melanoma, 1.00E−5 Molar
Description: as §1

SK-MEL-2 = test: NCI in vitro DTP human cell line screen, SK-MEL-2; format: cell-based; conditions: Melanoma, 1.00E−5 Molar
Description: as §1

SK-MEL-28 = test: NCI in vitro DTP human cell line screen, SK-MEL-28; format: cell-based; conditions: Melanoma, 1.00E−5 Molar
Description: as §1

SK-MEL-5 = test: NCI in vitro DTP human cell line screen, SK-MEL-5; format: cell-based; conditions: Melanoma, 1.00E−5 Molar
Description: as §1

UACC-257 = test: NCI in vitro DTP human cell line screen, UACC-257; format: cell-based; conditions: Melanoma, 1.00E−5 Molar
Description: as §1

UACC-62 = test: NCI in vitro DTP human cell line screen, UACC-62; format: cell-based; conditions: Melanoma, 1.00E−5 Molar
Description: as §1

IGROV1 = test: NCI in vitro DTP human cell line screen, IGROV1; format: cell-based; conditions: Ovarian Cancer, 1.00E−5 Molar
Description: as §1

OVCAR-3 = test: NCI in vitro DTP human cell line screen, OVCAR-3; format: cell-based; conditions: Ovarian Cancer, 1.00E−5 Molar
Description: as §1

OVCAR-4 = test: NCI in vitro DTP human cell line screen, OVCAR-4; format: cell-based; conditions: Ovarian Cancer, 1.00E−5 Molar
Description: as §1

OVCAR-5 = test: NCI in vitro DTP human cell line screen, OVCAR-5; format: cell-based; conditions: Ovarian Cancer, 1.00E−5 Molar
Description: as §1

OVCAR-8 = test: NCI in vitro DTP human cell line screen, OVCAR-8; format: cell-based; conditions: Ovarian Cancer, 1.00E−5 Molar
Description: as §1

NCI/ADR-RES = test: NCI in vitro DTP human cell line screen, NCI/ADR-RES; format: cell-based; conditions: Ovarian Cancer, 1.00E−5 Molar
Description: as §1

SK-OV-3 = test: NCI in vitro DTP human cell line screen, SK-OV-3; format: cell-based; conditions: Ovarian Cancer, 1.00E−5 Molar
Description: as §1

786-0 = test: NCI in vitro DTP human cell line screen, 786-0; format: cell-based; conditions: Renal Cancer, 1.00E−5 Molar
Description: as §1

ACHN = test: NCI in vitro DTP human cell line screen, ACHN; format: cell-based; conditions: Renal Cancer, 1.00E−5 Molar
Description: as §1

CAKI-1 = test: NCI in vitro DTP human cell line screen, CAKI-1; format: cell-based; conditions: Renal Cancer, 1.00E−5 Molar
Description: as §1

RXF 393 = test: NCI in vitro DTP human cell line screen, RXF 393; format: cell-based; conditions: Renal Cancer, 1.00E−5 Molar
Description: as §1

SN12C = test: NCI in vitro DTP human cell line screen, SN12C; format: cell-based; conditions: Renal Cancer, 1.00E−5 Molar
Description: as §1

TK-10 = test: NCI in vitro DTP human cell line screen, TK-10; format: cell-based; conditions: Renal Cancer, 1.00E−5 Molar
Description: as §1

UO-31 = test: NCI in vitro DTP human cell line screen, UO-31; format: cell-based; conditions: Renal Cancer, 1.00E−5 Molar
Description: as §1

PC-3 = test: NCI in vitro DTP human cell line screen, PC-3; format: cell-based; conditions: Prostate Cancer, 1.00E−5 Molar
Description: as §1

DU145 = test: NCI in vitro DTP human cell line screen, DU145; format: cell-based; conditions: Prostate Cancer, 1.00E−5 Molar
Description: as §1

MCF7 = test: NCI in vitro DTP human cell line screen, MCF7; format: cell-based; conditions: Breast Cancer, 1.00E−5 Molar
Description: as §1

MDA-MB-231/ATCC = test: NCI in vitro DTP human cell line screen, MDA-MB-231/ATCC; format: cell-based; conditions: Breast Cancer, 1.00E−5 Molar
Description: as §1

HS 578-T = test: NCI in vitro DTP human cell line screen, HS 578-T; format: cell-based; conditions: Breast Cancer, 1.00E−5 Molar
Description: as §1

BT-549 = test: NCI in vitro DTP human cell line screen, BT-549; format: cell-based; conditions: Breast Cancer, 1.00E−5 Molar
Description: as §1

T-47D = test: NCI in vitro DTP human cell line screen, T-47D; format: cell-based; conditions: Breast Cancer, 1.00E−5 Molar
Description: as §1

MDA-MB-468 = test: NCI in vitro DTP human cell line screen, MDA-MB-468; format: cell-based; conditions: Breast Cancer, 1.00E−5 Molar
Description: as §1

60 cancer lines = test: NCI cell toxicity assay of 60 cancer lines, whole panel summary; format: cell-based, human; conditions: 1.00E−5 Molar
Description: as §1

O=c1c2ccccc2sc2c(Cl)c(Sc3ccc(Cl)cc3)ccc12 [No. 29, 4-Chloro-3-(4-chlorophenylthio)-9H-thioxanthen-9-one]
Growth Percent (M14): 89.62% | Growth Percent (MDA-MB-435): 85.11% | Growth Percent (SK-MEL-2): 105.36% | Growth Percent (SK-MEL-28): 114.93% | Growth Percent (SK-MEL-5): 88.35% | Growth Percent (UACC-257): 99.23% | Growth Percent (UACC-62): 82.23% | Growth Percent (IGROV1): 53.39% | Growth Percent (OVCAR-3): 90.37% | Growth Percent (OVCAR-4): 31.58% | Growth Percent (OVCAR-5): 107.36% | Growth Percent (OVCAR-8): 64.49% | Growth Percent (NCI/ADR-RES): 81.27% | Growth Percent (SK-OV-3): 73.85% | Growth Percent (786-0): 84.66% | Growth Percent (ACHN): 39.55% | Growth Percent (CAKI-1): 48.21% | Growth Percent (RXF 393): 97.81% | Growth Percent (SN12C): 70.19% | Growth Percent (TK-10): 88.86% | Growth Percent (UO-31): 69.61% | Growth Percent (PC-3): 77.10% | Growth Percent (DU145): 108.68% | Growth Percent (MCF7): 83.90% | Growth Percent (MDA-MB-231/ATCC): 77.55% | Growth Percent (HS 578-T): 102.79% | Growth Percent (BT-549): 87.92% | Growth Percent (T-47D): 85.63% | Growth Percent (MDA-MB-468): 87.73% | Growth Percent, Mean (60 cancer lines; mean over all cell lines): 78.44% | cancer types with the better inhibition effect (in words) (60 cancer lines; summary of Table 3): better inhibition effect on Leukemia, non-small cell lung cancer, colorectal cancer, central nervous system cancer, ovarian cancer and kidney cancer
